Assay results: publication PMC12311729, “Probing the Mechanism of L‑DOPA 2,3-Dioxygenase Using Synthetic Derivatives of 3,4-Dihydroxyhydrocinnamic Acid” (ACS Omega, 2025)

How the values were obtained:
[1] = system: S. hygroscopicus jingganensis L-DOPA 2,3-dioxygenase (ShjDDO); test: Presteady state stopped-flow kinetic assay, modeled with KinTek Explorer; assay type: biochemical, Streptomyces hygroscopicus jingganensis
Procedure: Reaction temperature was controlled at 14 ± 0.5 °C by a circulating water bath. […] Stock solutions of 6-[…] prepared in DMSO. […] ShjDDO was reconstituted with iron(II) sulfate heptahydrate, gel filtered into the reaction buffer, and loaded into the drive syringe. […] Fifteen to twenty progress curves from the same experimental conditions were averaged in the KinTek Stopped Flow software and exported to KinTek Explorer for modeling. Between experiments, the instrument drive syringes were cleaned with acid, base, and water; soaked in 1% Hellmanex detergent for 30 min at ∼30-35 °C; thoroughly rinsed with water; and stored in 10% ethanol. […] state kinetic data were analyzed by fitting to simulated mechanisms using the KinTek Explorer software (KinTek Corp, Austin, TX). KinTek Explorer simulates experimental results by using direct numerical integration of rate equations for the kinetic model and yields estimates for the rate constants of microscopic steps. […] state experiments were modeled using KinTek Explorer according to a defined reaction pathway, as described in the Results and Discussion and shown in Scheme . The extinction coefficients of the DHHCA and 6-[…] semialdehyde products were independently determined as described above and fixed during fitting. Some rates were fixed as either “fast” (i.e., 1 × 10^9) or very slow (1 × 10^-12, i.e., ∼0) as described in the text. The equilibrium represented by k 1 and k -1 was fixed at the ratio of substrate charge states as predicted by the experimentally determined pK a values (Table ) and the Henderson-Hasselbach equation. Extinction coefficients were fitted and/or fixed during fitting as described in the text and interpreted using the observable expression: […], where a is the extinction coefficient applied to ESQ, b is the independently experimentally determined extinction coefficient on P, and c is a y-axis offset. […] ESO2 is the ternary complex of enzyme, substrate, and oxygen. ESQ represents the putative semiquinone intermediate, a UV-absorbing species, and ESQ_X is the species formed from the nonproductive quenching of the semiquinone. […] EP is the enzyme-product complex, and P is the free semialdehyde product. P can then degrade nonenzymatically to the spectroscopically silent P_X. Errors on each fit were calculated from 2[…] at 0.83 Chi^2. The KinTek Explorer program FitSpace explores the uniqueness of a particular fit to the data by measuring the dependence of the sum square error (SSE) on each pair of parameters, while allowing all other parameters to vary in seeking the best fit. […]

[2] = Determination of pKa values by spectrophotometric titration; details: for pK a value: first catecholic deprotonation, determined spectroscopically from pH 3 to 12.5
Procedure: A buffer system utilizing five different buffers was prepared to cover the pH range of 3.0 to 12.50. A Thermo Scientific Orion Star A211 pH meter was used to measure and determine the pH of each buffer. The pH meter was calibrated using three- and four-point calibration with pH values of 4.00, 7.01, and 10.01 and 4.00, 7.01, 10.01, and 12.00, respectively.
The buffer systems were prepared as previously described and included: NaOAc/HOAc buffers (C = 0.1 M; I = 0.1 M) were used to cover the pH range of 3.0 to 5.50. KH2PO4/K2HPO4 buffers (C = 0.05 M; I = 0.1 M) were used to cover the pH range of 6.00 to 8.00. CHES buffers (C = 0.05 M; I = 0.1 M) were used to cover the pH range of 8.50 to 10.50. Na2HPO4/Na3PO4 buffers (C = 0.05 M; I = 0.1 M) were used to cover the pH range of 11.00 to 12.00. KCl buffers (C = 0.1 M; I = 0.1 M) were used to cover the pH range of 12.00 to 12.50.
The absorbance spectra of the compounds were determined at each pH as previously described. Briefly, a stock solution was prepared for each compound by weighing 2 mg of the compound using a high-precision analytical balance. Each compound was then dissolved in DMSO at a concentration of 10 mM. A UV-transparent 96-well microplate (Corning clear acrylic 96-well UV plate with a UV-transparent flat bottom) was loaded with 196 μL of buffer solution and 4 μL of the catechol stock in each well to get a final concentration of 200 μM. DMSO (4 μL) was added to 196 μL of the appropriate buffer to produce a blank solution for each buffer.
The 96-well plate was loaded into the microplate reader and incubated at 30 °C and shaken for 10 min before the reading. Absorbance readings were completed by using a Synergy HTX 15032517 microplate reader. Each well was read at wavelengths from 210 to 600 nm with 2-nm increments for each scan over a duration of 60 min.
The data were analyzed as previously described. Raw UV-spectra scans were exported to the Excel program. They were first processed by subtracting the reading of the blank solutions from the reading of each compound at the corresponding wavelengths. […] Finally, the spectral difference between the pH 3.0 buffer and the spectra at all other pH values was plotted. Additionally, the spectral difference between the pH 4.0 buffer and the spectra at all other higher pH values was plotted. The wavelengths for the maximum positive and negative absorbance were determined by using the graphs of the spectral difference plots, both for the pH 3.0 and pH 4.0 spectral difference plots. The absolute maximum positive and total absorbance differences at these chosen wavelengths were plotted against the pH of each buffer. The data were imported into the Origin 6.0 program, and the pK a values were determined with a nonlinear regression using eq : 1 Absorbancetotal=εHA−εA−[10^(pH−pKa)]/1+10^(pH−pKa)×[St]
εHA is the extinction coefficients of the acid form of the compound, and εA ^– is the extinction coefficient of the base form of the compound (i.e., the minima and maxima of the absorbance difference curve, respectively), and [S t] is the total compound concentration.

[3] = Cyclic voltammetry (redox potentials on a GCE); assay type: physicochemical; details: for (E p)a Oxidation / (E p)c Reduction / E1/2 / Ipa/Ipc / ΔE p: GCE (d = 2 mm)
Description: Reduction and oxidation potentials were experimentally performed by cyclic voltammetry (CV) at biological pH 7.4, as previously described. All samples were run on a CH Instruments 600E Potentiostat in a one-compartment cell equipped with a three-electrode system arrangement. The three-electrode system included a saturated calomel electrode as the reference electrode, a platinum wire as the auxiliary electrode, and a glassy carbon electrode (GCE, d = 2 mm) as the working electrode. The GCE was polished between each sample scan with an aqueous slurry of alumina powder on a microcloth pad. The electrodes were rinsed with distilled water prior to the next scan. All scans were conducted under nitrogen for oxygen displacement and at room temperature (rt, 25 ± 1 °C). All samples were prepared as close to the scan as possible (approximately 2 min each). Each sample (5 mL) contained 0.1 mM catecholic substrate and 1 μM DMSO in 0.1 M phosphate buffer at a pH of 7.4 or 6.0. […] The cyclic voltammograms for the compounds at both pH 6.0 and 7.4 are available in Figures S40–S51.

[4] = pH 7.35, 14 °C, ∼1000 μM O2, 380 nm, fitted, ± is FitSpace range
[5] = percentage of the value for L-DOPA

k6 (productive formation of EI) [1, 4]: ~0.55 s⁻¹
k7 (rate of inactivation, ESQ to ESQ_X) [1, 4]: ~0.3 s⁻¹
productive formation of EI (k 6) faster than the rate of inactivation (k 7) ([1]; ratio k6/k7, presteady state with ShjDDO): 1.85 times
ratio of charge states (k1/k-1) predicted by pKa value and Henderson-Hasselbach equation ([2]; at pH 7.35): 1.44
pK a value [2]: 7.51 ± 0.06
pK a value ([2]; listed as 6-cyanoDHHCA): 7.51
Catecholic pKa value relative to L-DOPA x 100 [2, 5]: 85%
(E p)a Oxidation ([3]; pH 6.0): 358 mV
(E p)c Reduction ([3]; pH 6.0): 260 mV
E1/2 ([3]; pH 6.0): 309 mV
Ipa/Ipc ([3]; pH 6.0): 3.92
ΔE p ([3]; pH 6.0): 98 mV
(E p)a Oxidation ([3]; pH 7.4): 272 mV
(E p)c Reduction ([3]; pH 7.4): 147 mV
E1/2 ([3]; pH 7.4): 209.5 mV
Ipa/Ipc ([3]; pH 7.4): 1.96
ΔE p ([3]; pH 7.4): 125 mV
E1/2 (mV) at pH 7.4 relative to L-DOPA x 100 [3, 5]: 104%
SMILES: N#Cc1cc(O)c(O)cc1CCC(=O)O [6-CyanoDHHCA (5), 3-(2-cyano-4,5-dihydroxyphenyl) propanoic acid]
